Among the test systems are COLO 205 colon; HOP-92 NSCLC; M14 melanoma; NCI-H460 lung; SK-OV-3 ovarian; SNB-75 CNS; TK-10 renal; U251 CNS; UACC-257 melanoma; UACC-62 melanoma.
What all share (test): growth of human tumour cells (NCI), 48 h

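These data come from cells grown in 96-well plates and exposed to compound for 48 hours at five concentrations. Here, GI50 denotes the concentration required for 50% inhibition of growth. Definition used: TGI = concentration required for complete inhibition of growth.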 Bounds are passed on as bounds.

`O=C(NCCCNc1cc(-c2cn(-c3ccccc3)nc2-c2cccc(O)c2)ccn1)c1ccccc1`: the GI50 in the assay on COLO 205 colon is 1.71 µM; in the assay with HOP-92 NSCLC, 1.7 µM; in the assay on M14 melanoma, 2.56 µM; with NCI-H460 lung, 3.61 µM; in the assay on SK-OV-3 ovarian, 6.63 µM; in the assay on SNB-75 CNS, 1.68 µM. Further, the GI50 was 8.39 µM with TK-10 renal, 4.12 µM in the assay with U251 CNS, 2.07 µM with UACC-257 melanoma and 3.15 µM with UACC-62 melanoma. Moreover, the TGI with COLO 205 colon was 3.67 µM; with HOP-92 NSCLC, 24.5 µM; in the assay on M14 melanoma it was 6.72 µM; in the assay with NCI-H460 lung it was 18.7 µM; in the assay on SK-OV-3 ovarian, 92.8 µM; with SNB-75 CNS it was 46.9 µM. Besides, the TGI with TK-10 renal was 52.6 µM; in the assay on U251 CNS, 21 µM; with UACC-257 melanoma, 4.4 µM; in the assay with UACC-62 melanoma it was 12.2 µM.
As to `CCOc1cc2c(NCCCN(CCO)CCO)ncnc2c(OCC)c1OCC`, the TGI is above 100 µM in the assay with COLO 205 colon; above 88 µM in the assay on HOP-92 NSCLC; above 100 µM with M14 melanoma; above 100 µM with NCI-H460 lung; above 100 µM in the assay with SK-OV-3 ovarian; above 100 µM in the assay with SNB-75 CNS. The TGI with TK-10 renal, in the assay on U251 CNS, in the assay with UACC-257 melanoma and with UACC-62 melanoma was above 100 µM each time.
As to `COC(=O)c1c2c(c(C)[n+]([O-])c1C)C(=O)C=C(NCc1ccc(F)c(F)c1)C2=O`, the GI50 in the assay on COLO 205 colon is 0.257 µM; in the assay on HOP-92 NSCLC, 1.56 µM; with M14 melanoma, 0.274 µM; with NCI-H460 lung, 0.45 µM; in the assay on SK-OV-3 ovarian it was 1.86 µM; with SNB-75 CNS, 1.63 µM. Also, the GI50 was 2.06 µM in the assay on TK-10 renal, 0.458 µM with U251 CNS, 0.225 µM in the assay on UACC-257 melanoma and 0.0618 µM in the assay with UACC-62 melanoma. In addition, the TGI with COLO 205 colon was 0.713 µM; with HOP-92 NSCLC, 3.61 µM; in the assay on M14 melanoma, 1.38 µM; in the assay on NCI-H460 lung, 1.79 µM; in the assay on SK-OV-3 ovarian it was 4.06 µM; with SNB-75 CNS it was 2.99 µM. For the same compound, the TGI in the assay with TK-10 renal came to 4.82 µM; in the assay on U251 CNS it was 1.72 µM; in the assay on UACC-257 melanoma, 0.657 µM; in the assay with UACC-62 melanoma, 0.612 µM.
In the case of `Cc1nc2c(n1C(C)(C)C)C(=O)c1ccccc1C2=O`, the TGI with COLO 205 colon is above 100 µM; in the assay with HOP-92 NSCLC, 66.4 µM; in the assay on M14 melanoma, above 100 µM; with NCI-H460 lung it was above 100 µM; in the assay with SK-OV-3 ovarian, above 100 µM; with SNB-75 CNS, above 100 µM. The TGI with TK-10 renal, in the assay with U251 CNS, with UACC-257 melanoma and in the assay on UACC-62 melanoma was above 100 µM each time.
For the compound `Cc1nc2sc(C(=O)Nc3cccc4ccccc34)c(N)c2cc1C(=O)c1ccccc1`, the GI50 in the assay on COLO 205 colon was 1.65 µM; in the assay with HOP-92 NSCLC it was 6.82 µM; in the assay with M14 melanoma, 1.23 µM; with NCI-H460 lung, 0.727 µM; in the assay with SK-OV-3 ovarian, 1.28 µM; in the assay on SNB-75 CNS, 1.04 µM. For the same compound, the GI50 in the assay on TK-10 renal was above 50 µM; in the assay on U251 CNS it was 1.97 µM; in the assay on UACC-257 melanoma, above 50 µM; in the assay with UACC-62 melanoma, 2.42 µM. Moreover, the TGI was above 50 µM in the assay on COLO 205 colon; above 50 µM in the assay with HOP-92 NSCLC; above 50 µM in the assay with M14 melanoma; 6.32 µM in the assay on NCI-H460 lung; above 50 µM in the assay on SK-OV-3 ovarian; above 50 µM in the assay on SNB-75 CNS. Also, the TGI in the assay with TK-10 renal, with U251 CNS, in the assay with UACC-257 melanoma and in the assay with UACC-62 melanoma was above 50 µM in each case.
Turning to `Cn1ncc2c(N)nc(N3CCCCC3)nc21`, the GI50 is 19.7 µM in the assay with COLO 205 colon; 44.3 µM with HOP-92 NSCLC; 42.6 µM in the assay on M14 melanoma; 42.5 µM in the assay with NCI-H460 lung; 22.5 µM in the assay on SK-OV-3 ovarian; 29.7 µM in the assay with SNB-75 CNS. Besides, the GI50 is 22.9 µM with TK-10 renal, 30.7 µM in the assay on U251 CNS, 54.4 µM with UACC-257 melanoma and 19.6 µM in the assay on UACC-62 melanoma. For the same compound, the TGI with COLO 205 colon is 51.4 µM; with HOP-92 NSCLC it was above 100 µM; in the assay with M14 melanoma it was above 100 µM; in the assay on NCI-H460 lung, above 100 µM; in the assay on SK-OV-3 ovarian, above 100 µM; with SNB-75 CNS it was above 100 µM. For the same compound, the TGI with TK-10 renal was 77.8 µM; with U251 CNS, above 100 µM; with UACC-257 melanoma it was above 100 µM; in the assay on UACC-62 melanoma, 37.3 µM.
Consider `C(CCC[Te][Te]CCCCCCOC1CCCCO1)CCOC1CCCCO1` (stereo not given), for which the TGI was 36.5 µM in the assay with COLO 205 colon; 30.5 µM in the assay with HOP-92 NSCLC; above 100 µM in the assay on M14 melanoma; 30 µM in the assay on NCI-H460 lung; 80.7 µM in the assay on SK-OV-3 ovarian; 33.7 µM in the assay with SNB-75 CNS. Further, the TGI amounted to 95.1 µM with TK-10 renal, 24.5 µM with U251 CNS, 20.7 µM with UACC-257 melanoma and 23.6 µM in the assay on UACC-62 melanoma.
On to `N#Cc1c(-c2ccccc2)cc(-c2ccc(Nc3nc(Nc4ccc(Cl)cc4)nc(Nc4ccc(Cl)cc4)n3)cc2)nc1N`, for which the GI50 was 1.78 µM in the assay with COLO 205 colon; 1.06 µM with HOP-92 NSCLC; 1.79 µM with M14 melanoma; 3.47 µM with NCI-H460 lung; 21.3 µM in the assay on SK-OV-3 ovarian; 2.65 µM with SNB-75 CNS. Moreover, the GI50 was 1.89 µM in the assay with TK-10 renal, 2.63 µM in the assay with U251 CNS, 1.92 µM in the assay on UACC-257 melanoma and 5.56 µM in the assay on UACC-62 melanoma. Further, the TGI in the assay on COLO 205 colon amounted to 3.96 µM; with HOP-92 NSCLC, 3.86 µM; in the assay with M14 melanoma, 3.67 µM; in the assay on NCI-H460 lung, 15.8 µM; in the assay with SK-OV-3 ovarian, 55 µM; with SNB-75 CNS, 14.4 µM. Further, the TGI turned out to be 4.4 µM in the assay with TK-10 renal, 10.2 µM with U251 CNS, 4.47 µM with UACC-257 melanoma and 45.4 µM in the assay on UACC-62 melanoma.
For `NNc1cccc(/C=C/c2ccccc2)cc1=O`, the GI50 in the assay on COLO 205 colon was 7.76 µM; in the assay with HOP-92 NSCLC, 8.71 µM; with M14 melanoma, 12.4 µM; in the assay with NCI-H460 lung, 3.61 µM; in the assay with SK-OV-3 ovarian, 19.8 µM; with SNB-75 CNS, 31 µM. Moreover, the GI50 was 50.6 µM in the assay with TK-10 renal, 6.93 µM in the assay with U251 CNS, 26.7 µM with UACC-257 melanoma and 5.33 µM in the assay on UACC-62 melanoma. In addition, the TGI was above 100 µM in the assay with COLO 205 colon; 70.7 µM with HOP-92 NSCLC; 44.7 µM in the assay on M14 melanoma; 42.3 µM with NCI-H460 lung; above 100 µM in the assay on SK-OV-3 ovarian; above 100 µM in the assay with SNB-75 CNS. Besides, the TGI is above 100 µM in the assay with TK-10 renal, above 100 µM in the assay on U251 CNS, above 100 µM with UACC-257 melanoma and 93.1 µM with UACC-62 melanoma.

The record behind these values is PubChem BioAssay (NCI).
